Results from PMC9779714, “Enhanced Therapeutic Effect of Optimized Melittin-dKLA, a Peptide Agent Targeting M2-like Tumor-Associated Macrophages in Triple-Negative Breast Cancer” (International Journal of Molecular Sciences, 2022).

How the values were obtained:
[1] = test system: THP-1-derived M2 macrophages; assay: Flow cytometry binding of FITC-conjugated peptides to M2 macrophages; type: cell-based, human; settings: 100 nM FITC-conjugated peptides, 1 h, percentage of FITC-positive cells, n = 3
Method: To address the binding ability of truncated melittin peptides to M2 macrophages, fluorescein isothiocyanate (FITC)-conjugated peptides were synthesized and incubated with M2 macrophages, and the percentage of FITC-positive cells was measured using flow cytometry. […] Next, to confirm and compare the binding capabilities of melittin and melittin 8-26 to different macrophage lineages, including M0, M1, and M2, FITC-conjugated peptides were tested on each macrophage phenotype, and their binding capabilities were measured by flow cytometry. […]
Figure 3 Binding of melittin fragments to the THP-1-derived M2 macrophages. […] (A) Melittin or melittin fragment affinity for M2 macrophages was measured using flow cytometry. […] (B) The affinity of melittin or melittin 8-26 for macrophages was detected by flow cytometry. TEXT PRINTED IN THE PICTURE: (B) Melittin: M0: 21.78; M1: 17.22; M2: 46.02 | (B) Melittin 8-26: M0: 26.8; M1: 14.74; M2: 34.66 DOUBTS OF THE COPYIST ABOUT THIS PICTURE: Panel B: the tiny quadrant labels (UL 0.00, UR 0.00, and LL values such as about 78.22, 53.98, 73.20, 85.26, 65.34) are too small, blurred or partly hidden by the dots to read with certainty, so they are left out. / Panel B: no measure or unit is printed with the large quadrant numbers. […]

red blood cells = assay: Hemolysis assay on mouse red blood cells; type: cell-based, BALB/c mouse; settings: mouse red blood cells in PBS, peptides 1-40 μM, 4 h at 37 °C, OD 450 nm of supernatant, 2% Triton X-100 positive control, mean of n = 3
Method: Melittin has been well-documented to have strong hemolytic effects. To diminish such adverse effects, several truncated melittin were synthesized and analyzed in vitro (Figure 2A). Mouse blood cells were treated with varying concentrations of peptides for 4 h, and the optical density was measured using a microplate reader.
Figure 2 Melittin fragments have fewer hemolytic effects than melittin. (A) Amino acid sequence of melittin and melittin-truncated peptide. (B) Hemolysis of red blood cells treated with FITC-conjugated melittin or FITC-conjugated melittin fragments at concentrations ranging from 1 μM to 40 μM and incubated at 37 °C for 4 h. […] The optical density of hemoglobin released supernatant was measured at 450 nm. […]
Figure 4 Characterization of the optimized hybrid peptide drug, PEG-melittin-dKLA 8-26. […] The optical density was measured at 490 nm. […] The optical density of hemoglobin released in the supernatant was measured at 450 nm. […]
Blood was collected from each BALB/c mouse. […] The optical density of the samples was measured at 450 nm using a microplate reader (Molecular Devices). The percentage of hemolysis was calculated using the following equation: hemolysis (%) = (OD450 nm sample − OD450 nm negative control)/(OD450 nm positive control − OD450 nm negative control) × 100%. All data are expressed as the mean ± SEM of three independent experiments.

In the case of melittin, the “binding affinity to M2 macrophages (in words)” value [1] is reported as “highest binding affinity” and the “concentration at which hemolysis was observed” value (red blood cells) is reported as “above 5 μM”.
